# In patent US20020059032A1, “Rational selection of putative peptides from identified nucleotide or peptide sequences” (priority 1999, published 2002):
# Where a SMILES comes first, the peptide text is derived from it.
# Target: guinea pig brain membranes
# Experiment: Binding test with guinea pig brain membranes
# Conditions: tested on guinea pig brain membranes; read-out: IC50 = 100 μM
# Description: Binding Assay Alternative Protocol by Skatron
# The experimental conditions are identical for all the binding assay protocols except for the fact that: i) the volume R in operation is 200 μl; ii) the test carried out in 96-well Falcon plates iii) the reaction is directly stopped by filtration on filterMat (ref. 11734) Skatron and the radioactivity associated with the filtrate is evaluated: either directly with a γ counter for the peptides labelled with […]: or with a […] in the presence of 5 ml of scintillating liquid.
# Membrane Preparations of Guinea Pig Brains and Binding Assay
# The guinea pigs are sacrificed by rupturing their cervical vertibrae, decapitated, and the brains are removed very rapidly and placed into a sucrose-Tris-HCl buffer (0.32 M sucrose 5 mM, Tris-HCl, 0.1 g/l bacitracin) at 4° C. (about 10 ml of buffer per brain). The brains are then homogenized using a Potter device and the homogenate is placed in incubation for 30 minutes at 37° C. under agitation, then centrifuged twice for 35 minutes at 100,000×g at 4° C. The protein content of the membrane preparations is evaluated according to the Bradford method (BioRad, according to the manufacturers protocol).
# Bonding of Labelled Agonists to the Guinea Pig Brain Membrane Preparation The membranes are placed in a buffer (50 mM of Tris-HCl, 5 mM of MgCl2 and 0.1 g/l of bacitracin) at the desired protein concentration (iodized CCK bond, 0.1 mg of protein/ml; iodized gastrin bond: 0.5 mg of proteins/ml). They are then incubated in the presence of a labelled ligand in a total volume of 500 μl (about 10 pM for the iodized CCK8, 20 pM for the iodized gastrin13), 50-80 minutes at 25° C., and in the presence or absence of cold agonists. The reaction is stopped with 3 ml of additional BSA buffer (20 g/l) at 4° C., the tubes are centrifuged at 10,000×g, the supernatant is drawn off and the radioactivity associated with the precipitate is evaluated with a γ counter.
row,Compound,IC50 [nM]
1,"CC[C@H](C)[C@H](NC(=O)[C@H](CO)NC(=O)[C@H](Cc1ccccc1)NC(=O)[C@@H](N)CO)C(=O)N[C@H](C(=O)NCC(=O)N[C@@H](CC(=O)O)C(=O)N[C@@H](Cc1ccccc1)C(=O)N[C@@H](CCC(N)=O)C(=O)N[C@@H](CC(N)=O)C(N)=O)[C@@H](C)CC [Example 30, H-SFSIIGDFQN-NH2] (H-SFSIIGDFQN-NH2)",27000
2,"CC(C)C[C@H](NC(=O)[C@H](CC(N)=O)NC(=O)[C@H](CC(=O)O)NC(=O)[C@H](Cc1c[nH]c2ccccc12)NC(=O)[C@@H](NC(=O)[C@H](CC(C)C)NC(=O)[C@H](CC(=O)O)NC(=O)[C@H](CO)NC(=O)[C@H](C)NC(=O)[C@@H](N)CO)[C@@H](C)O)C(=O)N[C@@H](CCCCN)C(N)=O [Example 34, H-SASDLTWDNLK-NH2] (H-SASDLTWDNLK-NH2)",1000
3,"CC[C@H](C)[C@H](N)C(=O)N[C@@H](CO)C(=O)N[C@@H](CCC(=O)O)C(=O)N[C@@H](CC(C)C)C(=O)N[C@@H](Cc1ccccc1)C(=O)N[C@H](C(=O)N[C@@H](CC(C)C)C(=O)N[C@@H](CCC(=O)O)C(N)=O)[C@@H](C)O [Example 35, H-ISELFTLE-NH2] (H-ISELFTLE-NH2)",5600
4,"CSCC[C@H](NC(=O)[C@H](CCC(N)=O)NC(=O)[C@H](CCC(=O)O)NC(=O)[C@H](CCSC)NC(=O)[C@H](CC(C)C)NC(=O)[C@@H]1CCCN1C(=O)CNC(=O)[C@@H]1CCCN1C(=O)[C@@H]1CCCN1C(=O)CNC(=O)CNC(=O)[C@@H]1CCCN1C(=O)CNC(=O)CN)C(=O)NCC(N)=O [Example 36, H-GGPGGPPGPLMEQMG-NH2] (H-GGPGGPPGPLMEQMG-NH2)",2900
5,"CC(C)C[C@H](NC(=O)[C@H](C)N)C(=O)N[C@@H](CCC(=O)O)C(=O)N[C@@H](Cc1c[nH]c2ccccc12)C(=O)N[C@@H](CC(C)C)C(=O)NCC(=O)N[C@@H](C)C(=O)N[C@@H](CC(=O)O)C(=O)N[C@@H](CCCNC(=N)N)C(=O)N[C@@H](CC(N)=O)C(=O)N[C@@H](CCC(=O)O)C(N)=O [Example 37, H-ALEWLGADRNE-NH2] (H-ALEWLGADRNE-NH2)",800
6,"CC[C@H](C)[C@H](NC(=O)[C@@H]1CCCN1C(=O)[C@H](CCC(=O)O)NC(=O)[C@H](CC(=O)O)NC(=O)[C@@H](NC(=O)CNC(=O)[C@H](CCC(=O)O)NC(=O)[C@H](Cc1ccccc1)NC(=O)[C@H](CC(=O)O)NC(=O)[C@@H](NC(=O)[C@@H](N)CC(=O)O)C(C)C)[C@@H](C)O)C(=O)N[C@@H](Cc1ccccc1)C(N)=O [Example 38, H-DVDFEGTDEPIF-NH2] (H-DVDFEGTDEPIF-NH2)",500
7,"CC(C)C[C@H](NC(=O)[C@H](C)NC(=O)[C@H](CCCCN)NC(=O)CNC(=O)[C@@H]1CCCN1C(=O)[C@@H](NC(=O)[C@H](C)NC(=O)CN)[C@@H](C)O)C(=O)N[C@H](C(=O)N[C@@H](C)C(=O)N[C@H](C(=O)N1CCC[C@H]1C(N)=O)[C@@H](C)O)C(C)C [Example 39, H-GATPGKALVATP-NH2] (H-GATPGKALVATP-NH2)",400
8,"CC(C)[C@H](NC(=O)[C@@H](NC(=O)[C@H](CCCCN)NC(=O)[C@@H]1CCCN1C(=O)[C@@H](NC(=O)[C@@H](NC(=O)[C@H](C)NC(=O)[C@H](CCCNC(=N)N)NC(=O)[C@@H]1CCCN1)[C@@H](C)O)[C@@H](C)O)[C@@H](C)O)C(=O)N[C@@H](CCCNC(=N)N)C(=O)N[C@@H](CO)C(N)=O [Example 42, H-PRATTPKTVRS-NH2] (H-PRATTPKTVRS-NH2)",560
9,"CC[C@H](C)[C@H](NC(=O)[C@H](Cc1ccccc1)NC(=O)[C@H](CCC(=O)O)NC(=O)[C@@H]1CCCN1C(=O)[C@H](Cc1ccc(O)cc1)NC(=O)[C@H](Cc1c[nH]cn1)NC(=O)[C@H](CCC(=O)O)NC(=O)[C@@H](NC(=O)[C@@H](N)CC(C)C)C(C)C)C(N)=O [Example 45, H-LVEHYPEFI-NH2] (H-LVEHYPEFI-NH2)",700
10,"CC[C@H](C)[C@H](NC(=O)[C@H](CCCCN)NC(=O)[C@@H](NC(=O)[C@H](CC(C)C)NC(=O)[C@@H](NC(=O)CNC(=O)[C@@H](N)CO)[C@@H](C)O)[C@@H](C)CC)C(=O)N[C@@H](Cc1ccccc1)C(=O)N[C@@H](CCC(N)=O)C(=O)N[C@@H](C)C(=O)N[C@@H](CO)C(N)=O [Example 47, H-SGTLIKIFQAS-NH2] (H-SGTLIKIFQAS-NH2)",300
11,"CSCC[C@H](NC(=O)[C@H](C)NC(=O)[C@H](CCCCN)NC(=O)[C@H](CC(N)=O)NC(=O)[C@H](C)NC(=O)[C@H](CCC(=O)O)NC(=O)[C@H](CCC(=O)O)NC(=O)[C@H](CCCCN)NC(=O)[C@H](C)NC(=O)[C@H](CC(=O)O)NC(=O)[C@H](CCC(N)=O)NC(=O)[C@H](CCC(=O)O)NC(=O)[C@H](C)NC(=O)[C@@H](N)Cc1ccccc1)C(N)=O [Example 48, H-FAEQDAKEEANKAM-NH2] (H-FAEQDAKEEANKAM-NH2)",1470
12,"C[C@@H](O)[C@H](NC(=O)[C@@H](N)CCC(=O)O)C(=O)N[C@@H](CCCCN)C(=O)N[C@@H](Cc1c[nH]cn1)C(=O)NCC(=O)NCC(=O)N[C@@H](Cc1c[nH]cn1)C(=O)N[C@@H](CCCCN)C(=O)N[C@@H](CC(N)=O)C(N)=O [Example 49, H-ETKHGGHKN-NH2] (H-ETKHGGHKN-NH2)",330
13,"CC(C)C[C@H](NC(=O)[C@H](C)NC(=O)[C@H](CCC(=O)O)NC(=O)[C@H](CCC(N)=O)NC(=O)[C@@H](N)CC(C)C)C(=O)N[C@@H](CO)C(=O)N[C@@H](CCCCN)C(=O)N[C@@H](C)C(=O)N[C@@H](C)C(N)=O [Example 50, H-LQEALSKAA-NH2] (H-LQEALSKAA-NH2)",1000

# The next compounds have a lower IC50 than those just listed; values first:
row,IC50 [nM],Compound
1,250,"CC(C)C[C@H](NC(=O)[C@H](CCCCN)NC(=O)[C@H](CO)NC(=O)[C@@H](N)CCC(=O)O)C(=O)N[C@@H](CCC(=O)O)C(=O)N[C@@H](CCCNC(=N)N)C(=O)N[C@H](C(=O)N1CCC[C@H]1C(=O)N[C@@H](CCC(N)=O)C(=O)N[C@@H](CCCCN)C(=O)N[C@@H](CC(N)=O)C(=O)N[C@H](C(=O)N[C@@H](CCC(N)=O)C(N)=O)C(C)C)[C@@H](C)O [Example 41, H-ESKLERTPQKNVQ-NH2] (H-ESKLERTPQKNVQ-NH2)"
2,200,"CC[C@H](C)[C@H](NC(=O)[C@H](CCC(=O)O)NC(=O)[C@H](C)NC(=O)[C@@H](N)C(C)C)C(=O)N[C@@H](CCC(N)=O)C(=O)NCC(=O)N[C@@H](Cc1c[nH]cn1)C(=O)N[C@@H](C)C(=O)NCC(N)=O [Example 32, H-VAEIQGHAG-NH2] (H-VAEIQGHAG-NH2)"
3,130,"CC[C@H](C)[C@H](NC(=O)[C@H](Cc1ccccc1)NC(=O)[C@H](C)NC(=O)[C@H](CCSC)NC(=O)[C@@H](NC(=O)[C@H](CCC(=O)O)NC(=O)[C@@H]1CCCN1C(=O)CNC(=O)[C@H](CCCCN)NC(=O)[C@@H](N)CCSC)C(C)C)C(=O)N[C@@H](CCC(=O)O)C(=O)N[C@@H](CCC(N)=O)C(N)=O [Example 40, H-MKGPEVMAFIEQ-NH2] (H-MKGPEVMAFIEQ-NH2)"
4,100,"CC[C@H](C)[C@H](NC(=O)[C@H](CC(N)=O)NC(=O)[C@H](Cc1c[nH]cn1)NC(=O)[C@@H](N)CC(C)C)C(=O)N[C@@H](CC(C)C)C(=O)NCC(=O)N[C@H](C(=O)N[C@@H](CCC(=O)O)C(=O)N[C@H](C(=O)NCC(=O)NCC(=O)N1CCC[C@H]1C(=O)NCC(N)=O)[C@@H](C)O)C(C)C [Example 33, H-LHNILGVETGGPG-NH2] (H-LHNILGVETGGPG-NH2)"
5,100,"CSCC[C@H](NC(=O)[C@H](CCCNC(=N)N)NC(=O)[C@@H](N)CCC(=O)O)C(=O)NCC(=O)N[C@@H](Cc1c[nH]cn1)C(=O)N[C@@H](Cc1c[nH]cn1)C(=O)N[C@@H](CC(=O)O)C(=O)N[C@@H](CC(=O)O)C(=O)N[C@@H](Cc1ccc(O)cc1)C(=O)N[C@@H](Cc1ccc(O)cc1)C(=O)N[C@@H](CO)C(=O)N[C@@H](CCCNC(=N)N)C(=O)N[C@@H](CC(C)C)C(=O)N[C@@H](CCCNC(=N)N)C(N)=O [Example 44, H-ERMGHHDDYYSRLR-NH2] (H-ERMGHHDDYYSRLR-NH2)"
6,100,"CC(C)C[C@H](NC(=O)CNC(=O)[C@H](CC(C)C)NC(=O)[C@H](CC(N)=O)NC(=O)[C@H](CCCNC(=N)N)NC(=O)[C@H](CC(C)C)NC(=O)[C@@H](NC(=O)[C@H](CO)NC(=O)[C@@H](NC(=O)[C@H](CO)NC(=O)[C@@H](N)Cc1ccccc1)C(C)C)[C@@H](C)O)C(N)=O [Example 46, H-FSVSTLRNLGL-NH2] (H-FSVSTLRNLGL-NH2)"
7,50,"CSCC[C@H](NC(=O)[C@H](CO)NC(=O)[C@H](CCSC)NC(=O)[C@H](CO)NC(=O)[C@H](CC(=O)O)NC(=O)[C@H](CCCCN)NC(=O)[C@H](CC(N)=O)NC(=O)[C@H](CCC(N)=O)NC(=O)[C@H](CCCNC(=N)N)NC(=O)[C@@H](NC(=O)[C@H](CCCCN)NC(=O)[C@@H](N)CCSC)[C@@H](C)O)C(=O)N[C@@H](CCCNC(=N)N)C(=O)N[C@@H](CO)C(N)=O [Example 43, H-MKTRQNKDSMSMRS-NH2] (H-MKTRQNKDSMSMRS-NH2)"
8,10,"CC(C)C[C@H](NC(=O)[C@@H]1CCCN1C(=O)[C@H](CC(C)C)NC(=O)[C@H](CCC(N)=O)NC(=O)[C@@H](N)Cc1ccccc1)C(=O)N[C@@H](CC(=O)O)C(=O)N[C@@H](CCCCN)C(=O)NCC(=O)N[C@@H](CC(N)=O)C(N)=O [Example 29, H-FQLPLDKGN-NH2] (H-FQLPLDKGN-NH2)"
